Test [1] deals with T1, Full-length inactive AKT1 (Homo sapiens, UniProt P31749). As to the kind of experiment: Inactive Akt HTRF Assay (Akt1). On the technique in general: Time-resolved FRET reads energy transfer from a long-lived donor to a nearby acceptor.
Protocol: AKT1 activity was assayed using CisBio KinEASE™ HTRF Assay technology. This technology utilizes a proprietary biotinylated peptide substrate (STKS3), streptavidin labeled XL665 antibody, and STK antibody-Eu^3+-cryptate. AKT1 activation was achieved by the addition of the activating kinases PDK1 and MAPKAPK2, lipid vesicles, and ATP. The extent of STKS3 biotinylated peptide phosphorylation was determined using a phospho-STK antibody-Eu^3+-cryptate and streptavidin labeled XL665 antibody. XL665 was stimulated by Eu^3+-cryptate resulting in a TR-FRET signal proportional to the SKS3 phosphorylation level.
For test [2], the target named is T1, Full-length inactive AKT1. As to the kind of experiment: Inactive Akt Alpha Screen Assay. Format: biochemical. The method, boiled down: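 AlphaScreen read-out (excitation 640 nm, emission 570 nm) after 90 min incubation at room temperature in the dark. Signal comes from crosstide phosphorylation by AKT1, which was activated by added PDK1, MAPKAPK2, ATP and lipid vesicles, captured via phospho-AKT substrate antibody and streptavidin beads.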

For the next test, the system named is AN3CA. Description: MTS Assay, cell proliferation, AN3CA. Format: cell-based. Particulars: Homo sapiens, AN3-CA, read-out: Average of [CELL], IC50, MTS (72 hours; 10 Percent; FBS) AN3CA. The procedure: (§1) Cell proliferation analysis. Cell survival was determined by the MTS assay. Briefly, cells were plated in a 96-well plate at 2,000-10,000 cells per well, cultured for 24 hours in complete growth medium, and then treated with various drugs and drug combinations for 72 hours. MTS was added and incubated for 4 hour, followed by assessment of cell viability using the microplate reader at 570 nm. Data were normalized to untreated controls and analyzed with Microsoft Excel.

The test system of the next test is A2780. Description: MTS Assay, cell proliferation, A2780. Format: cell-based. Conditions: Homo sapiens, read-out: Average of [CELL], IC50, MTS (72 hours; 10 Percent; FBS) A2780. The procedure:
as §1

The test system of a further test is LnCap. As to the kind of experiment: MTS Assay, cell proliferation, LnCap. Format: cell-based. Conditions: Homo sapiens, read-out: Average of [CELL], IC50, MTS (72 hours; 10 Percent; FBS) LnCap. The procedure: as §1
For the next test, the system named is BT474. As to the kind of experiment: MTS Assay, cell proliferation, BT474. Format: cell-based. Conditions: Homo sapiens, BT-474, read-out: Average of [CELL], IC50, MTS (72 hours; 10 Percent; FBS) BT474. As for the experimental part: as §1
[3] abbreviates: values not marked with "*", read-out: Akt1 IC50, (AlphaScreen).
The mark [4] stands for this setting: AlphaScreen assay (values not marked with *), read-out: Akt1 IC50, (AlphaScreen) (μM) (or if marked with “*” HTRF assay).

Structures can show the parent of a compound that is named as a salt.

T1 sequence (P31749 whole entry): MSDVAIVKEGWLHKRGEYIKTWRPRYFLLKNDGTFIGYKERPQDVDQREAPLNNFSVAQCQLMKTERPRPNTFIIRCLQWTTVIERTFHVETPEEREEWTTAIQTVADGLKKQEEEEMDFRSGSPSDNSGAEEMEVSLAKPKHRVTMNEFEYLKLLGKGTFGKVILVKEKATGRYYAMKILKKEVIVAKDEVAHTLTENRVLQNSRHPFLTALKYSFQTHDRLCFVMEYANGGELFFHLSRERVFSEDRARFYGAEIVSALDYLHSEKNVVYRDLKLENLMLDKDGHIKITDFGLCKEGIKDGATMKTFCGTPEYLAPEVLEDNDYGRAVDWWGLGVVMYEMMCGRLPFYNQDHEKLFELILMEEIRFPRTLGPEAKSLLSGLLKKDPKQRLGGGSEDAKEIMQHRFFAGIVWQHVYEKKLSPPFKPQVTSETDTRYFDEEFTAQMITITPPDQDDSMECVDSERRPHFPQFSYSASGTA

In general, IC50 refers to the midpoint of a concentration-inhibition curve. In turn, `Nc1ncccc1-c1nc2cccnc2n1-c1ccc(-n2cncn2)cc1` [Example 31] showed an IC50 in test [1] of 22100 nM.

Turning to `CC(C(=O)NCc1ccc(-n2c(-c3cccnc3N)nc3cccnc32)cc1)c1ccccc1` (stereo not shown) [Example 51, N-{4-[2-(2-aminopyridin-3-yl)-3H-imidazo[4,5-b]pyridin-3-yl]benzyl}-2-phenylpropanamide], in test [1], the IC50 was 82800 nM.

In turn, `Nc1ncccc1-c1nc2cccnc2n1-c1ccc(CC(=O)Nc2ccc(Cl)cn2)cc1` [Example 117, 2-{4-[2-(2-aminopyridin-3-yl)-3H-imidazo[4,5-b]pyridin-3-yl]phenyl}-N-(5-chloropyridin-2-yl)acetamide] displayed an IC50 in test [1] of 3960 nM.

As to `CCCCNC(=O)Cc1ccc(-n2c(-c3cccnc3N)nc3cccnc32)cc1` [Example 132, 2-{4-[2-(2-aminopyridin-3-yl)-3H-imidazo[4,5-b]pyridin-3-yl]phenyl}-N-butylacetamide], the IC50 in test [1] worked out at 6840 nM.

For the compound `Nc1ncccc1-c1nc2cc(-c3ccccc3Br)cnc2n1-c1ccc(CNC(=O)c2ccccc2)cc1` [Example 136, N-{4-[2-(2-aminopyridin-3-yl)-6-(2-bromophenyl)-3H-imidazo[4,5-b]pyridin-3-yl]benzyl}benzamide], in test [1], 7100 nM corresponded to half-maximal inhibition (IC50).

As to `CC(=O)Nc1cccc(-c2ccc3nc(-c4cccnc4N)n(-c4ccc(CC(=O)Nc5ccccc5)cc4)c3n2)c1` [Example 261, 2-(4-(5-(3-acetamidophenyl)-2-(2-aminopyridin-3-yl)-3H-imidazo[4,5-b]pyridin-3-yl)phenyl)-N-phenylacetamide], the IC50 in test [2] (setting [3]) came out at 0.013 µM; with AN3CA, 2200 nM; in the test with A2780, 3300 nM; in the test with LnCap, 1900 nM; with BT474 it was 1300 nM.

Consider `CC(=O)Nc1cccc(-c2ccc3nc(-c4cccnc4N)n(-c4ccc(CNC(=O)c5ccccc5)cc4)c3n2)c1` [Example 287, N-(4-(5-(3-acetamidophenyl)-2-(2-aminopyridin-3-yl)-3H-imidazo[4,5-b]pyridin-3-yl)benzyl)benzamide], for which the IC50 in test [2] (setting [3]) came to 0.014 µM; with AN3CA, 1500 nM; with A2780, 1600 nM; with LnCap, 2000 nM; with BT474, 1200 nM.

Take `CC(=O)Nc1cccc(NC(=O)Cc2ccc(-n3c(-c4cccnc4N)nc4ccc(-c5cccc(NC(C)=O)c5)nc43)cc2)c1` [Example 289, N-(3-acetamidophenyl)-2-(4-(5-(3-acetamidophenyl)-2-(2-aminopyridin-3-yl)-3H-imidazo[4,5-b]pyridin-3-yl)phenyl)acetamide]: the IC50 was found to be 0.0063 µM in test [2] (setting [3]); 12000 nM in the test with AN3CA; 10000 nM with A2780; 17000 nM with LnCap; 3200 nM with BT474.

As to `CC(=O)Nc1cccc(-c2ccc3nc(-c4cccnc4N)n(-c4ccc(CC(=O)Nc5ccc6nc(C)ccc6c5)cc4)c3n2)c1` [Example 290, 2-(4-(5-(3-acetamidophenyl)-2-(2-amino-pyridin-3-yl)-3H-imidazo[4,5-b]pyridin-3-yl)phenyl)-N-(2-methylquinolin-6-yl)acetamide], the IC50 came to 0.012 µM in test [2] (setting [3]); 1100 nM with AN3CA; 3800 nM in the test on A2780; 2100 nM in the test with LnCap; 620 nM with BT474.

Turning to `CC(=O)Nc1ccc(-c2ccc3nc(-c4cccnc4N)n(-c4ccc(CNC(=O)c5ccc(C)c(F)c5)cc4)c3n2)cc1` [Example 292, N-(4-(5-(4-acetamidophenyl)-2-(2-aminopyridin-3-yl)-3H-imidazo[4,5-b]pyridin-3-yl)benzyl)-3-fluoro-4-methylbenzamide], the IC50 in test [2] (setting [3]) worked out at 0.096 µM; in the test on AN3CA, 2300 nM; in the test with A2780, 7400 nM; in the test with LnCap it was 730 nM; in the test on BT474, 940 nM.

Take `CC(=O)Nc1cccc(-c2ccc3nc(-c4cccnc4N)n(-c4ccc(CC(=O)Nc5cccc(F)c5)cc4)c3n2)c1` [Example 294, 2-(4-(5-(3-acetamidophenyl)-2-(2-aminopyridin-3-yl)-3H-imidazo[4,5-b]pyridin-3-yl)phenyl)-N-(3-fluorophenyl)acetamide]: the IC50 came to 0.016 µM in test [2] (setting [3]); 1700 nM in the test with AN3CA; 3300 nM in the test with A2780; 950 nM in the test with LnCap; 1100 nM in the test with BT474.

Consider `Cc1cnc2c(c1)nc(-c1cccnc1N)n2-c1ccc(CC(=O)Nc2ccc3ncccc3c2)cc1` [Example 295, 2-(4-(2-(2-aminopyridin-3-yl)-6-methyl-3H-imidazo[4,5-b]pyridin-3-yl)phenyl)-N-(quinolin-6-yl)acetamide], for which the 50% inhibitory concentration (IC50) is 0.076 µM in test [2] (setting [3]); 3300 nM in the test with AN3CA; 3800 nM with A2780; 1800 nM in the test on LnCap; 5000 nM with BT474.

Consider `CC(=O)Nc1cccc(-c2ccc3nc(-c4cccnc4N)n(-c4ccc(CC(=O)NC(C)C)cc4)c3n2)c1` [Example 296, 2-(4-(5-(3-acetamidophenyl)-2-(2-aminopyridin-3-yl)-3H-imidazo[4,5-b]pyridin-3-yl)phenyl)-N-isopropylacetamide], for which the 50% inhibitory concentration (IC50) in test [2] (setting [3]) stood at 0.095 µM; in the test with AN3CA, 12000 nM; in the test on A2780, 33000 nM; in the test on LnCap, 3900 nM; in the test on BT474, 6900 nM.

Regarding `CCCCNC(=O)Cc1ccc(-n2c(-c3cccnc3N)nc3ccc(-c4cccc(NC(C)=O)c4)nc32)cc1` [Example 297, 2-(4-(5-(3-acetamidophenyl)-2-(2-aminopyridin-3-yl)-3H-imidazo[4,5-b]pyridin-3-yl)phenyl)-N-butylacetamide], the concentration for half-maximal inhibition (IC50) in test [2] (setting [3]) amounted to 0.035 µM; in the test on AN3CA it was 6500 nM; in the test on A2780 it was 15000 nM; with LnCap, 3000 nM; in the test with BT474, 3600 nM.

`Nc1ncccc1-c1nc2ccc(-c3cccnc3)nc2n1-c1ccc(CNC(=O)c2cccc(F)c2)cc1` [Example 333, N-(4-(2-(2-aminopyridin-3-yl)-5-(pyridin-3-yl)-3H-imidazo[4,5-b]pyridin-3-yl)benzyl)-3-fluorobenzamide]: the half-inhibitory concentration (IC50) was found to be 0.1 µM in test [2] (setting [3]); 12000 nM in the test on AN3CA; 13000 nM in the test with A2780; 5700 nM with LnCap; 6100 nM with BT474.

`Nc1ncccc1-c1nc2ccc(-c3cccc(N4CCC5(CC4)OCCO5)c3)nc2n1-c1ccc(C2(N)CCC2)cc1` [Example 464, 3-{3-[4-(1-aminocyclobutyl)phenyl]-5-[3-(1,4-dioxa-8-azaspiro[4.5]dec-8-yl)phenyl]-3H-imidazo[4,5-b]pyridin-2-yl}pyridin-2-amine]: in test [2] (setting [4]), the half-inhibitory concentration (IC50) was found to be 0.011 µM.

Turning to `Nc1ncccc1-c1nc2ccc(-c3ccc(N4CCOCC4)cc3)nc2n1-c1ccc(C2(N)CCC2)cc1` [Example 465, 3-{3-[4-(1-aminocyclobutyl)phenyl]-5-(4-morpholin-4-ylphenyl)-3H-imidazo[4,5-b]pyridin-2-yl}pyridin-2-amine hydrochloride], the IC50 in test [2] (setting [4]) amounted to 0.0058 µM.

Regarding `Nc1ncccc1-c1nc2ccc(-c3cccc(N4CCOCC4=O)c3)nc2n1-c1ccc(C2(N)CCC2)cc1` [Example 466, 4-(3-{3-[4-(1-aminocyclobutyl)phenyl]-2-(2-aminopyridin-3-yl)-3H-imidazo[4,5-b]pyridin-5-yl}phenyl)morpholin-3-one hydrochloride], the IC50 in test [2] (setting [4]) was 0.0035 µM.

For the origin of these results see patent US8501770B2 (ArQule, Inc., priority 2009, dated 2013).
